Counter-ions that a name gives are not always drawn.
What was measured:
Type in all cases: biochemical
[1] = target: T1, thrombin (Homo sapiens, UniProt P00734); assay: inhibition of the amidolytic activity of thrombin (chromogenic substrate H-D-Phe-Pip-Arg-paranitroaniline); settings: substrate 10 or 50 μM; thrombin 0.5 nM final conc.; pH 7.8; room temperature
Experimental: The measurements were carried out on microtitre plates at room temperature. For this, in each well of the plate […] of buffer (50 mM Tris, 100 mM NaCl, 0.1% polyethylene glycol; pH 7.8) were mixed with […] of the inhibitor dissolved in DMSO and diluted in the buffer and […] of human thrombin (0.5 nM final conc.). After incubation for 10 minutes the reaction was started by the addition of the chromogenic substrate H-D-Phe-Pip-Arg-paranitroaniline (10 or 50 μM final concentration), in which Pip represents the characterizing group 2-piperidylenecarbonyl of the α-aminoacid H-Pip-OH, which is (S)-piperidine-2-carboxylic acid (or L-homoproline). The hydrolysis of the substrate was followed spectrophotometrically on a kinetic microtitre plate reader for 5 minutes.

[2] = target: Factor Xa (Homo sapiens, UniProt P00742); assay: inhibition of the amidolytic activity of Factor Xa (chromogenic substrate Bz-Ile-Glu-Gly-Arg-paranitroaniline); settings: substrate 167 μM final concentration
[3] = target: T1, thrombin; assay: thrombin test of crude products (chromogenic substrate S-2238, 405 nm); settings: crude product
Experimental: 5 g (1.5 mmol) of Fmoc-TGR resin according to H. Rink Tetrahedron Lett. 28, 3787 (1987) were shaken for 30 minutes. with a 20% solution of piperidine in DMF. Subsequently, the resin was washed with DMF. 1.19 g (3 mmol) of Fmoc-arginine, 950 mg (6 mmol) of 1-hydroxy-benzotriazole (HOBT--containing about 20% water), 570 mg of diisopropylcarbodiimide and DMF were added and the mixture was shaken for 1 hour. The resin was washed with DMF and shaken for 30 minutes with a 20% solution of piperidine in DMF. Thereafter, it was washed with DMF, isopropanol, water and methanol. Subsequently, the resin was distributed in equal portions in 30 reaction vessels, then 0.5 mmol of a carbonyl compound (a. paraformaldehyde, b. pivalaldehyde, c. benzaldehye, d. benzophenone and e. phenylpropionaldehyde) were added to in each case 6 of these vessels, whereafter to each 0.5 mmol of a maleimide (maleimide, N-methyl-, N-butyl-, N-cyclohexylmethyl-, N-phenyl- or N-benzyl-maleimide) was added such that each vessel contains a different pairing of carbonyl compound and maleimide. About 5 ml of a mixture of 150 ml of methanol and 8 ml of acetic acid were added to each vessel as the solvent and the batch was heated under reflux for 22 hours. After cooling the solvent was sucked off and the resin was washed in each case twice with dimethyl sulfoxide, isopropanol, water and isopropanol. The resin was then treated with in each case about 5 ml of a mixture of 40% trifluoroacetic acid, 50% dichloromethane, 5% water and 5% isopropanol and shaken for 2 hours. After filtration the 30 filtrate solutions were concentrated. 30 crude products were thus obtained as yellow oils. For mass spectroscopic and HPLC investigations about 0.5 mg of each oil was removed and taken up in […].

Factor Xa, sequence (P00742 235-488 limits assumed): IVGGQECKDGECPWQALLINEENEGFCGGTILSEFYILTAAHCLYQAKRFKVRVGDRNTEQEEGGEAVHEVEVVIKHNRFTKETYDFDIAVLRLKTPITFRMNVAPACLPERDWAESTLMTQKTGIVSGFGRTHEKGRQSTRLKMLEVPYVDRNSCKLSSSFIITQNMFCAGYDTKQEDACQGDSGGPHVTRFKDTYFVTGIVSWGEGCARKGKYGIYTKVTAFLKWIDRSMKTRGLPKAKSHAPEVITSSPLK
Factor Xa, sequence (P00742 41-179 partner limits assumed): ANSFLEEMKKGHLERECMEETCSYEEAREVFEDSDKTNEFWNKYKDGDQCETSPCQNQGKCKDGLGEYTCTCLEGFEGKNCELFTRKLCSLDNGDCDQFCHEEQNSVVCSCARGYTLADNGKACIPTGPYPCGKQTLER

Ki [1] [nM]	Compound	other results
90	N=C(N)c1ccc([C@@H]2[C@@H]3C(=O)N(Cc4ccc5c(c4)OCO5)C(=O)[C@@H]3[C@H]3CCCN32)cc1 (racemic) [4.A)g), (3aRS,4SR,8aRS,8bSR)-4-[2-(Benzo[1,3]dioxol-5-ylmethyl)-1,3-dioxo-decahydro-pyrrolo[3,4-a]pyrrolizin-4-yl]-benzimidamide hydrochloride]	–
350	N=C(N)c1ccc([C@@H]2[C@@H]3C(=O)N(CC4CCCCC4)C(=O)[C@@H]3[C@H]3CCCN32)cc1 (racemic) [7.A)g), (3aRS,4SR,8aRS,8bSR)-4-(2-Cyclohexylmethyl-1,3-dioxo-decahydro-pyrrolo[3,4-a]pyrrolizin-4-yl)-benzimidamide hydrochloride]	–
440	N=C(N)c1ccc([C@H]2[C@H]3C(=O)N(Cc4ccc5c(c4)OCO5)C(=O)[C@H]3[C@@H]3CSCN32)cc1 (racemic) [Example 7.A)i), (5RS,5aSR,8aRS,8bRS)-4-[7-(Benzo[1,3]dioxol-5-ylmethyl)-6,8-dioxo-octahydro-pyrrolo[3',4':3,4]pyrrolo[1,2-c]thiazol-5-yl]-benzimidamide hydrochloride]	–
670	N=C(N)c1ccc([C@@H]2[C@@H]3C(=O)N(Cc4ccccc4)C(=O)[C@@H]3[C@H]3C[C@H](O)CN32)cc1 [7.A)o), (3aR,4S,7S,8aR,8bS)-4-(2-Benzyl-7-hydroxy-1,3-dioxo-decahydro-pyrrolo[3,4-a]pyrrolizin-4-yl)-benzimidamide hydrochloride]	–

The next lines start with the compound.

Compound	Ki [1] [nM]	other results
C[C@H]1[C@@H]2C(=O)N(Cc3ccccc3)C(=O)[C@@H]2[C@H](c2ccc(C(=N)N)cc2)N1C (racemic) [4.A)a), (1RS,3SR,3aRS,6aSR)-4-(5-Benzyl-2,3-dimethyl-4,6-dioxo-octahydro-pyrrolo[3,4-c]pyrrol-1-yl)-benzimidamide hydrochloride]	670	–
CCCCN1C(=O)[C@@H]2[C@H](C1=O)[C@H]1CCCN1[C@@H]2c1ccc(NC(=N)N)cc1 (racemic) [Example 9, (3aRS,4SR,8aRS, 8bSR)-N-[4-(2-Butyl-1,3-dioxo-decahydro-pyrrolo[3,4-a]pyrrolizin-4-yl)-phenyl]-guanidinium nitrate]	110	–
N=C(N)c1ccc([C@@H]2N[C@](COCc3ccccc3)(C(=O)O)[C@@H]3C(=O)N(Cc4ccc([N+](=O)[O-])cc4)C(=O)[C@@H]32)cc1 (racemic) [Example 18, (1RS,3RS,3aSR,6aRS)-1-(benzyloxy-methyl)-3-(4-carbamimidoyl-phenyl)-5-(4-nitro-benzyl)-4,6-dioxo-octahydro-pyrrolo[3,4-c]pyrrole-1-carboxylic acid hydrochloride]	–	Ki [2]: 98 nM
N=C(N)c1ccc([C@@H]2N[C@](COCc3ccccc3)(C(=O)O)[C@@H]3C(=O)N(Cc4ccc(N)cc4)C(=O)[C@@H]32)cc1 (racemic) [Example 19, (1RS,3RS,3aSR,6aRS)-5-(4-amino-benzyl)-1-(benzyloxy-methyl)-3-(4-carbamimidoyl-phenyl)-4,6-dioxo-octahydro-pyrrolo[3,4-c]pyrrole-1-carboxylic acid hydrochloride]	–	Ki [2]: 76 nM
N=C(N)NCCCC1(C(N)=O)NC(c2ccccc2)C2C(=O)N(c3ccccc3)C(=O)C21 (stereo not drawn) [Example 12 m), 3,5-diphenyl-1-(3-guanidino-propyl)-4,6-dioxo-octahydro-pyrrolo[3,4-c]pyrrole-1-carboxamide]	–	inhibitory activity in the thrombin test ([3]; among the named cycloadducts of Example 12): greatest inhibitory activity
CSCCC1(C(=O)O)NC(c2ccc(C(=N)N)cc2)C2C(=O)N(CC3CCCCC3)C(=O)C21 (stereo not drawn) [Example 13 n), 5-cyclohexylmethyl-1-(2-methylsulfanyl-ethyl)-3-(4-carbamimidoyl-phenyl)-4,6-dioxo-octahydro-pyrrolo[3,4-c]pyrrole-1-carboxylic acid]	–	inhibitory activity in the thrombin test ([3]; among the named cycloadducts of Example 13): greatest inhibitory activity
N=C(N)c1ccc(C2C3C(=O)N(c4ccccc4)C(=O)C3C(CO)(C(=O)O)N2CCC(N)=O)cc1 (stereo not drawn) [Example 14 p), 3-hydroxymethyl-5-phenyl-1-(4-carbamimidoyl-phenyl)-2-(2-carbamoyl-ethyl)-4,6-dioxo-octahydro-pyrrolo[3,4-c]pyrrole-3-carboxylic acid]	–	inhibitory activity (determined according to Example 12) ([3]; among the products of Example 14): highest inhibitory activity
N=C(N)c1ccc(C2C3C(=O)N(C(Cc4ccccc4)C(N)=O)C(=O)C3C3CCCN32)cc1 (stereo not drawn) [Example 15]	–	inhibitory activity in the thrombin test ([3]; among the 20 crude products of Example 15): highest inhibitory activity

— patent US5686459A, “Dioxopyrrolo pyrrole derivatives” (Hoffmann-La Roche Inc., priority 1995, dated 1997)
